The results in this text go back to patent US10829478B2, “5-[3-[piperazin-1-yl]-3-oxo-propyl]-imidazolidine-2,4-dione derivatives as ADAMTS 4 and 5 inhibitors for treating e.g. osteoarthritis” (Galapagos NV, priority 2016, dated 2020).

The target of one test is human ADAMTS6 (Homo sapiens (Human), UniProt Q9UKP5). Description: hADAMTS-6 fluorescent based protease assay (520 MMP FRET substrate XII). Format: biochemical. Conditions: 37° C. for 2 h; read-out: hADAMTS-6 potency IC50. On the procedure:
The IC50 value for test compounds can be determined in a fluorescent based protease assay.
The substrate contains sequence Arg-Pro-Lys-Pro-Tyr-Ala-Nva-Trp-Met-Lys (SEQ ID NO: 7) with attached a fluorescent probe and a quencher. Without ADAMTS6, the emission of the probe is quenched. If the substrate is cleaved by ADAMTS6, the emission of the probe is not quenched anymore. Inhibition of ADAMTS6 activity, will result in a decrease of the signal.
To perform the assay, 4 μL of a dilution series of compound in water, starting from 20 μM highest concentration, ⅕ dilution, is added to the wells. 2 ng ADAMTS6 enzyme is diluted in 25 mM Tris pH8.0, 0.05% CHAPS, 2.5 mM CaCl2 in a total volume of 26 μL (final concentration 0.73 nM). The reaction is started by addition of 10 μL of 1 μM 520 MMP FRET Substrate XII (final concentration, diluted in same buffer as described above) and the mixture is incubated at 37° C. for 2 h. […] After this incubation, cleavage of the substrate is measured using the Envision (Perkin Elmer, exc485/em530).

The next test deals with human ADAMTS-5 (Homo sapiens (Human), UniProt Q9UNA0). Put plainly: hADAMTS-5 TBIS-1 cleavage assay, Protocol 3. Format: biochemical. Conditions: 90 min at 37° C., read-out: hADAMTS-5 potency IC50.
Chain of human ADAMTS-5 (Q9UNA0 262-930): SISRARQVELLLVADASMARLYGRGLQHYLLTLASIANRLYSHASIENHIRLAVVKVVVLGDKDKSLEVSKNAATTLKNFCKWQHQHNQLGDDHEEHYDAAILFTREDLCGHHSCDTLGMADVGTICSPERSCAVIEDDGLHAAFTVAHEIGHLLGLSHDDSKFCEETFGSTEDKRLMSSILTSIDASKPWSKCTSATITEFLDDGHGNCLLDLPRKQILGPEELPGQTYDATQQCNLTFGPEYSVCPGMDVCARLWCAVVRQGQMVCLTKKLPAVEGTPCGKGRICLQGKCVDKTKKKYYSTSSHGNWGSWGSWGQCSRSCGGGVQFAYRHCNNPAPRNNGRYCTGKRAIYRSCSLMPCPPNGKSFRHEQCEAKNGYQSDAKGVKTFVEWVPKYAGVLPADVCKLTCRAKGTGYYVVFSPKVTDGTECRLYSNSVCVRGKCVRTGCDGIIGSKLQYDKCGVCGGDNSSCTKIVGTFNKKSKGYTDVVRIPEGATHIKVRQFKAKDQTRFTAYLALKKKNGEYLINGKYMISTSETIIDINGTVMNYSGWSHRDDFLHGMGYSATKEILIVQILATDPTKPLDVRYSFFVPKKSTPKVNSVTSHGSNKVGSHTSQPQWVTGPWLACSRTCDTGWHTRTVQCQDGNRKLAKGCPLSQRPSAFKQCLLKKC

Chain of human ADAMTS6 (Q9UKP5 other isoform, or with tags, fused parts or gaps): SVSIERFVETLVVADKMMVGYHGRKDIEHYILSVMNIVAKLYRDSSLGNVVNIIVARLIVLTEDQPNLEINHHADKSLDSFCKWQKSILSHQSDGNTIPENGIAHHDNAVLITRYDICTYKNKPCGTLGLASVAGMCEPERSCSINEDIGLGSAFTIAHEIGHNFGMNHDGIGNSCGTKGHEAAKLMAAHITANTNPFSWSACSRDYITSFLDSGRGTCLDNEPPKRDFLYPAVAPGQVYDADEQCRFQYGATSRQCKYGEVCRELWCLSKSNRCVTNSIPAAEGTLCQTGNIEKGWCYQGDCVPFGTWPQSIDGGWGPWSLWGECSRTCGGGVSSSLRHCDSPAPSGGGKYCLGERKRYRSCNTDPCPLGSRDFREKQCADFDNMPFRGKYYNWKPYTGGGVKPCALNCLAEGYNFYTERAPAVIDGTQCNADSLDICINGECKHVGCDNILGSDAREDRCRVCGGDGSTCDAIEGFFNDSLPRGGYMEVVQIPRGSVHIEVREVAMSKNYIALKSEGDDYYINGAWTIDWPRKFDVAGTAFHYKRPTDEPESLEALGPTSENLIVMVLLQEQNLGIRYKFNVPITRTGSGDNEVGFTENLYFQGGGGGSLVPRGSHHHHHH
Description for human ADAMTS-5: The reaction is initiated by adding to the assay plate TBIS-1 (10 μL, 4.5 μM, Anaspec) in the same buffer.
Finally, the fluorescence is read on the Envision (Perkin Elmer) after an incubation of 90 min at 37° C. (Excitation 485 nm, emission 530).

The term IC50 denotes the point on the concentration scale where inhibition reaches its midpoint. For the molecule `COc1cc(N2CCN(C(=O)[C@@H](C)C[C@@]3(C)NC(=O)NC3=O)C[C@@H]2C)c(C)cc1Cl` (mixture of isomers) [Cpd 45, 5-[3-[(3S)-4-(4-chloro-5-methoxy-2-methyl-phenyl)-3-methyl-piperazin-1-yl]-2-methyl-3-oxo-propyl]-5-methyl-imidazolidine-2,4-dione], the IC50 at human ADAMTS6 and on human ADAMTS-5 was more than 100 nM each time. For `COC[C@]1(C[C@H](C)C(=O)N2CCN(c3cc(C)c(Cl)c(OC)c3)[C@@H](C)C2)NC(=O)NC1=O` (mixture of isomers) [Cpd 126, 5-[3-[(3S)-4-(4-chloro-3-methoxy-5-methyl-phenyl)-3-methyl-piperazin-1-yl]-2-methyl-3-oxo-propyl]-5-(methoxymethyl)imidazolidine-2,4-dione], the values for the half-maximal inhibitory concentration (IC50) on human ADAMTS6 and at human ADAMTS-5 were 0.001 to 25 nM and 25 to 50 nM, respectively. The matching figures for `COc1cc(N2CCN(C(=O)[C@@H](C)C[C@@]3(C)NC(=O)NC3=O)C[C@@H]2C)cc(OC)c1Cl` (stereo in doubt) [Cpd 44, 5-[3-[(3S)-4-(4-chloro-3,5-dimethoxy-phenyl)-3-methyl-piperazin-1-yl]-2-methyl-3-oxo-propyl]-5-methyl-imidazolidine-2,4-dione]: 0.001 to 25 nM and 50 to 100 nM. The matching figures for `COc1cc(N2CCN(C(=O)[C@H](C)C[C@@]3(C4CC4)NC(=O)NC3=O)C[C@@H]2C)cc(F)c1F` (stereo in doubt) [Cpd 134, 5-cyclopropyl-5-[3-[(3S)-4-(3,4-difluoro-5-methoxy-phenyl)-3-methyl-piperazin-1-yl]-2-methyl-3-oxo-propyl]imidazolidine-2,4-dione]: 50 to 100 nM and more than 100 nM. In the case of `COc1ccc(C)c(N2CCN(C(=O)CCC3(C)NC(=O)NC3=O)CC2)c1` (centres unmarked) [Cpd 32, 5-[3-[4-(5-methoxy-2-methyl-phenyl)piperazin-1-yl]-3-oxo-propyl]-5-methyl-imidazolidine-2,4-dione], the 50% inhibitory concentration (IC50) on human ADAMTS6 and at human ADAMTS-5 was more than 100 nM throughout.

In the case of `COc1cccc(N2CCN(C(=O)CCC3(C)NC(=O)NC3=O)CC2)c1C` (centres unmarked) [Cpd 33, 5-[3-[4-(3-methoxy-2-methyl-phenyl)piperazin-1-yl]-3-oxo-propyl]-5-methyl-imidazolidine-2,4-dione], the concentration for half-maximal inhibition (IC50) at human ADAMTS6 and on human ADAMTS-5 was more than 100 nM throughout. For the molecule `COc1ccc(C)c(N2CCN(C(=O)CCC3(C)NC(=O)NC3=O)C[C@@H]2C)c1` (stereo partly drawn) [Cpd 35, 5-[3-[(3S)-4-(5-methoxy-2-methyl-phenyl)-3-methyl-piperazin-1-yl]-3-oxo-propyl]-5-methyl-imidazolidine-2,4-dione], the half-inhibitory concentration (IC50) on human ADAMTS6 and at human ADAMTS-5 was more than 100 nM in each case. With `COc1cc(N2CCN(C(=O)CC[C@@]3(C)NC(=O)NC3=O)CC2)c(C)cc1F` [Cpd 67, (5R)-5-[3-[4-(4-fluoro-5-methoxy-2-methyl-phenyl)piperazin-1-yl]-3-oxo-propyl]-5-methyl-imidazolidine-2,4-dione], the concentration for half-maximal inhibition (IC50) at human ADAMTS6 fell in the range of 50 to 100 nM. For the molecule `COc1c(Cl)cccc1N1CCN(C(=O)CC[C@@]2(C)NC(=O)NC2=O)CC1` [Cpd 68, (5R)-5-[3-[4-(3-chloro-2-methoxy-phenyl)piperazin-1-yl]-3-oxo-propyl]-5-methyl-imidazolidine-2,4-dione], at human ADAMTS6, the half-maximal inhibitory concentration (IC50) is more than 100 nM. With `CCc1cc(CC)cc(N2CCN(C(=O)CC[C@@]3(C)NC(=O)NC3=O)CC2)c1` [Cpd 72, (5R)-5-[3-[4-(3,5-diethylphenyl)piperazin-1-yl]-3-oxo-propyl]-5-methyl-imidazolidine-2,4-dione], at human ADAMTS6, the IC50 is more than 100 nM. The same measure, in the same setting: under `COc1ccc(Cl)cc1N1CCN(C(=O)CC[C@@]2(C)NC(=O)NC2=O)CC1` [Cpd 77, (5R)-5-[3-[4-(5-chloro-2-methoxy-phenyl)piperazin-1-yl]-3-oxo-propyl]-5-methyl-imidazolidine-2,4-dione] stands more than 100 nM; under `COc1cc(F)ccc1N1CCN(C(=O)CC[C@@]2(C)NC(=O)NC2=O)C[C@@H]1C` [Cpd 81, (5R)-5-[3-[(3 S)-4-(4-fluoro-2-methoxy-phenyl)-3-methyl-piperazin-1-yl]-3-oxo-propyl]-5-methyl-imidazolidine-2,4-dione], more than 100 nM; under `COc1c(F)cccc1N1CCN(C(=O)CC[C@@]2(C)NC(=O)NC2=O)CC1` [Cpd 82, (5R)-5-[3-[4-(3-fluoro-2-methoxy-phenyl)piperazin-1-yl]-3-oxo-propyl]-5-methyl-imidazolidine-2,4-dione], more than 100 nM.

For the molecule `COc1ccc(F)cc1N1CCN(C(=O)CC[C@@]2(C)NC(=O)NC2=O)CC1` [Cpd 83, (5R)-5-[3-[4-(5-fluoro-2-methoxy-phenyl)piperazin-1-yl]-3-oxo-propyl]-5-methyl-imidazolidine-2,4-dione], at human ADAMTS6, the half-inhibitory concentration (IC50) was more than 100 nM.

As to `COc1c(F)cccc1N1CCN(C(=O)CC[C@@]2(C)NC(=O)NC2=O)C[C@@H]1C` [Cpd 84, (5R)-5-[3-[(3 S)-4-(3-fluoro-2-methoxy-phenyl)-3-methyl-piperazin-1-yl]-3-oxo-propyl]-5-methyl-imidazolidine-2,4-dione], the IC50 at human ADAMTS6 was more than 100 nM. With `CC(C)c1cc(N2CCN(C(=O)CC[C@@]3(C)NC(=O)NC3=O)CC2)ccc1Cl` [Cpd 87, (5R)-5-[3-[4-(4-chloro-3-isopropyl-phenyl)piperazin-1-yl]-3-oxo-propyl]-5-methyl-imidazolidine-2,4-dione], the IC50 on human ADAMTS6 lay within 50 to 100 nM. For the molecule `C[C@]1(CCC(=O)N2CCN(c3ccc(Cl)c(OC(F)(F)F)c3)CC2)NC(=O)NC1=O` [Cpd 88, (5R)-5-[3-[4-[4-chloro-3-(trifluoromethoxy)phenyl]piperazin-1-yl]-3-oxo-propyl]-5-methyl-imidazolidine-2,4-dione], at human ADAMTS6, the IC50 was in the range of 25 to 50 nM. The same measure, in the same setting: under `COc1cc(Cl)c(Cl)cc1N1CCN(C(=O)CC[C@@]2(C)NC(=O)NC2=O)C[C@@H]1C` [Cpd 92, (5R)-5-[3-[(3 S)-4-(4,5-dichloro-2-methoxy-phenyl)-3-methyl-piperazin-1-yl]-3-oxo-propyl]-5-methyl-imidazolidine-2,4-dione] stands 0.001 to 25 nM. On the same count and under the same terms, under `COc1cc(N2CCN(C(=O)CC[C@@]3(C)NC(=O)NC3=O)CC2)c(OC)cc1Cl` [Cpd 97, (5R)-5-[3-[4-(4-chloro-2,5-dimethoxy-phenyl)piperazin-1-yl]-3-oxo-propyl]-5-methyl-imidazolidine-2,4-dione] stands 25 to 50 nM. As to `CCc1cc(N2CCN(C(=O)CCC3(CC(=O)O)NC(=O)NC3=O)C[C@@H]2C)ccc1Cl` (some centres unmarked) [Cpd 98, 2-[4-[3-[(3 S)-4-(4-chloro-3-ethyl-phenyl)-3-methyl-piperazin-1-yl]-3-oxo-propyl]-2,5-dioxo-imidazolidin-4-yl]acetic acid], the IC50 on human ADAMTS6 fell in the range of 0.001 to 25 nM. For `CCc1cc(N2CCN(C(=O)CCC3(c4cccc(C)n4)NC(=O)NC3=O)C[C@@H]2C)ccc1Cl` (some centres unmarked) [Cpd 100, 5-[3-[(3 S)-4-(4-chloro-3-ethyl-phenyl)-3-methyl-piperazin-1-yl]-3-oxo-propyl]-5-(6-methyl-2-pyridyl)imidazolidine-2,4-dione], the IC50 on human ADAMTS6 was 0.001 to 25 nM. On the same count and under the same terms, under `Cc1cccc(C2(CCC(=O)N3CCN(c4ccc(Cl)c(OC(F)(F)F)c4)[C@@H](C)C3)NC(=O)NC2=O)n1` (some centres unmarked) [Cpd 101, 5-[3-[(3 S)-4-[4-chloro-3-(trifluoromethoxy)phenyl]-3-methyl-piperazin-1-yl]-3-oxo-propyl]-5-(6-methyl-2-pyridyl)imidazolidine-2,4-dione] stands 0.001 to 25 nM; under `CCc1cc(N2CCN(C(=O)CC[C@@]3(C)NC(=O)NC3=O)CC2)c(OC)cc1Cl` [Cpd 102, (5R)-5-[3-[4-(4-chloro-5-ethyl-2-methoxy-phenyl)piperazin-1-yl]-3-oxo-propyl]-5-methyl-imidazolidine-2,4-dione], more than 100 nM. The same measure, in the same setting: under `CCc1cc(N2CCN(C(=O)CC[C@@]3(C)NC(=O)NC3=O)C[C@@H]2C)c(OC)cc1Cl` [Cpd 103, (5R)-5-[3-[(3 S)-4-(4-chloro-5-ethyl-2-methoxy-phenyl)-3-methyl-piperazin-1-yl]-3-oxo-propyl]-5-methyl-imidazolidine-2,4-dione] stands more than 100 nM. The same measure, in the same setting: the same measure for `COc1cc(N2CCN(C(=O)CC[C@@]3(C)NC(=O)NC3=O)C[C@@H]2C)c(OC)cc1Cl` [Cpd 104, (5R)-5-[3-[(3 S)-4-(4-chloro-2,5-dimethoxy-phenyl)-3-methyl-piperazin-1-yl]-3-oxo-propyl]-5-methyl-imidazolidine-2,4-dione]: 0.001 to 25 nM; for `COc1ccc(OC(F)(F)F)c(N2CCN(C(=O)CC[C@@]3(C)NC(=O)NC3=O)C[C@@H]2C)c1` [Cpd 108, (5R)-5-[3-[(3S)-4-[5-methoxy-2-(trifluoromethoxy)phenyl]-3-methyl-piperazin-1-yl]-3-oxo-propyl]-5-methyl-imidazolidine-2,4-dione]: more than 100 nM. Turning to `COc1cc(N2CCN(C(=O)CC[C@@]3(C)NC(=O)NC3=O)C[C@@H]2C)cc(OC)c1Cl` [Cpd 110, (5R)-5-[3-[(3 S)-4-(4-chloro-3,5-dimethoxy-phenyl)-3-methyl-piperazin-1-yl]-3-oxo-propyl]-5-methyl-imidazolidine-2,4-dione], the IC50 was 0.001 to 25 nM on human ADAMTS6 and more than 100 nM on human ADAMTS-5.
